# Test results reported in patent US6342504B1, “Aromatic heterocyclic derivatives as enzyme inhibitors” (priority 1994, dated 2002).
# pIC50: −log10 of the molar value. Where a name gives a salt, the structure may show the parent alone.
# Legend:
# human alpha thrombin = target: T1, human alpha thrombin (Homo sapiens, UniProt P00734); experiment: Thrombin (fIIa) IC50 assay, chromogenic substrate Pefachrome t-PA; assay type: biochemical
# T1 construct: Purified human alpha-thrombin; purchased Enzyme Research Laboratories, Inc
# Description: (§1) The ability of compounds of the present invention to act as a selective inhibitor of thrombin catalytic activity was assessed by determining the concentration of compound which inhibited the activity of this enzyme by 50%, (IC50), and comparing this value to that determined for all or some of the following related serine proteases: recombinant tissue plasminogen activator (rt-PA), plasmin, activated protein C, chymotrypsin, factor Xa and trypsin.
# (§2) The buffer used for all assays was HBSA (10 mM HEPES, pH 7.5, 150 mM sodium chloride, 0.1% bovine serum albumin).
# (§3) The assay for IC50 determinations was conducted by combining in appropriate wells of a Corning microtiter plate, 50 microliters of HBSA, 50 microliters of the test compound at a specified concentration (covering a broad concentration range) diluted in HBSA (or HBSA alone for VO (uninhibited velocity) measurement), and 50 microliters of the enzyme diluted in HBSA. Following a 30 minute incubation at ambient temperature, 50 microliters of the substrate at the concentrations specified below were added to the wells, yielding a final total volume of 200 microliters. The initial velocity of chromogenic substrate hydrolysis was measured by the change in absorbance at 405 nm using a Thermo Max® Kinetic Microplate Reader over a 5 minute period in which less than 5% of the added substrate was utilized. The concentration of added inhibitor which caused a 50% decrease in the initial rate of hydrolysis was defined as the IC50 value.
# Enzyme activity was determined using the chromogenic substrate, Pefachrome t-PA (CH3SO2-D-hexahydrotyrosine-glycyl-L-Arginine-p-nitroaniline, obtained from Pentapharm Ltd.). The substrate was reconstituted in deionized water prior to use. Purified human a-thrombin was obtained from Enzyme Research Laboratories, Inc. The buffer used for all assays was HBSA (10 mM HEPES, pH 7.5, 150 mM sodium chloride, 0.1% bovine serum albumin).
# IC50 determinations were conducted where HBSA ([…]), a-thrombin (50 μl) and inhibitor (50 μl) (covering a broad concentration range), were combined in appropriate wells and incubated for 30 minutes at room temperature prior to the addition of substrate Pefachrome-t-PA (50 μl). The initial velocity of Pefachrome t-PA hydrolysis was measured by the change in absorbance at 405 nm using a Thermo Max® Kinetic Microplate Reader over a 5 minute period in which less than 5% of the added substrate was utilized. The concentration of added inhibitor which caused a 50% decrease in the initial rate of hydrolysis was defined as the IC50 value.
# Human rt-PA (Activase) = target: T2, Human rt-PA (Activase) (Homo sapiens, UniProt P00750); experiment: biochemical; conditions: 30 minute incubation; 1.0 nM enzyme; read-out: IC50 rt-PA (Table 2)
# T2 construct: purchased Genentech Inc
# T2 sequence (P00750 36-562): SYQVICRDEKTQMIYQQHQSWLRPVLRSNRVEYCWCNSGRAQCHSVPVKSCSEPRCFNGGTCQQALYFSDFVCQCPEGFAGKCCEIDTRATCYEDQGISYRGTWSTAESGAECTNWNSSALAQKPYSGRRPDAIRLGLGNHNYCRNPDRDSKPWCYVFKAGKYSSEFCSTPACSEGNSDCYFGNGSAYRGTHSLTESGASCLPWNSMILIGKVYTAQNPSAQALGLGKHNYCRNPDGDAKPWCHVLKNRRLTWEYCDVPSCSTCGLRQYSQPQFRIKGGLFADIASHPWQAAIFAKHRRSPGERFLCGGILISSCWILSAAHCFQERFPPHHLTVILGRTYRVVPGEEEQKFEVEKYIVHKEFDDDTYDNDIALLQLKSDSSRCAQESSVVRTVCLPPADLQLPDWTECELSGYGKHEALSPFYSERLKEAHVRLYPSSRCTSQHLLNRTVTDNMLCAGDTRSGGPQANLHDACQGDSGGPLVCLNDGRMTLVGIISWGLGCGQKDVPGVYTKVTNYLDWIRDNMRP
# Description: as §1, §2, §3
# Recombinant Tissue Plasminogen Activator (rt-PA) Assay
# rt-PA catalytic activity was determined using the substrate, Pefachrome t-PA (CH3SO2-D-hexahydrotyrosine-glycyl-L-arginine-p-nitroaniline, obtained from Pentapharm Ltd.). The substrate was made up in deionized water followed by dilution in HBSA prior to the assay in which the final concentration was 500 micromolar (about 3-times Km). Human rt-PA (Activase®) was obtained from Genentech Inc. The enzyme was reconstituted in deionized water and diluted into HBSA prior to the assay in which the final concentration was 1.0 nM.
# human plasmin = human plasmin (Homo sapiens, UniProt P00747); experiment: biochemical; conditions: 30 minute incubation; read-out: IC50 Plasmin (Table 2)
# Chain of human plasmin (P00747 97-580): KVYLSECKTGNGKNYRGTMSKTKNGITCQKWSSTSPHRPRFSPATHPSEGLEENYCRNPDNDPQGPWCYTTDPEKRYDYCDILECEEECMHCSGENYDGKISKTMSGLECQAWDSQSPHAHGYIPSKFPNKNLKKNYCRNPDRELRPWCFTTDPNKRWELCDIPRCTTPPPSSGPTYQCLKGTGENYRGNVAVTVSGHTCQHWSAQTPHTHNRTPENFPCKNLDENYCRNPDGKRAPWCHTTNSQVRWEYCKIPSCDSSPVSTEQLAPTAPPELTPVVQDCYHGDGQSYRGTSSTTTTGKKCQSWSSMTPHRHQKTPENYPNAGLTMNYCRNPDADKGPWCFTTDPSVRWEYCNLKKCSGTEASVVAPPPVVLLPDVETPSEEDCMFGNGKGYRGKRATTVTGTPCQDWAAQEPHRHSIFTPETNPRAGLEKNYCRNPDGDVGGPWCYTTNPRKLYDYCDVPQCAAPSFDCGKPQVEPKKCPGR
# Chain of human plasmin (P00747 581-810): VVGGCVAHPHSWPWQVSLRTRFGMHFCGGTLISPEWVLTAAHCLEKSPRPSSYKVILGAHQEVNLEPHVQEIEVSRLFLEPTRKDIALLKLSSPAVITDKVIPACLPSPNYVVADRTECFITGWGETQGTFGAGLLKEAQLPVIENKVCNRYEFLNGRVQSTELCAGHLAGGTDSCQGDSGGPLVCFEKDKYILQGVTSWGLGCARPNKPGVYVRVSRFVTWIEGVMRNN
# Description: as §1, §2, §3
# Plasmin catalytic activity was determined using the chromogenic substrate, S-2366 [L-pyroglutomyl-L-prolyl-L-arginine-p-nitroaniline hydrochloride], which was obtained from Pharmacia-Upjohn. The substrate was made up in deionized water followed by dilution in HBSA prior to the assay in which the final concentration was 300 micromolar (about 2.5-times Km). Purified human plasmin was obtained from Enzyme Research Laboratories, Inc. The enzyme was diluted into HBSA prior to assay in which the final concentration was […].
# human aPC = target: T3, human aPC (Homo sapiens, UniProt P04070); experiment: biochemical; conditions: 30 minute incubation; 1.0 nM enzyme; read-out: IC50 aPC (Table 2)
# T3 construct: purchased Hematologic Technologies, Inc
# T3 sequence (P04070 43-197): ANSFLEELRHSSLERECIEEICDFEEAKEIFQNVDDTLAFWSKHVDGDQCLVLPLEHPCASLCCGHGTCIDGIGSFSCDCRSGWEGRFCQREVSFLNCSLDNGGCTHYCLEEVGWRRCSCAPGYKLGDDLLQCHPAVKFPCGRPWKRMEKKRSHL
# T3 sequence (P04070 212-461): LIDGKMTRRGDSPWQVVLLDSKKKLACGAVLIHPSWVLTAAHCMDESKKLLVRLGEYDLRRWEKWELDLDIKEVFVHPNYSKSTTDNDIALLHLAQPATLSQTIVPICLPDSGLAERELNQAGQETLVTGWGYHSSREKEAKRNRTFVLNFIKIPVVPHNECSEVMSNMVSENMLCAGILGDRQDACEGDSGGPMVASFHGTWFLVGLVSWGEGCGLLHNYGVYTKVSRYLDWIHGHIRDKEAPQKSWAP
# Description: as §2
# Following a 30 minute incubation at ambient temperature, 50 microliters of the substrate at the concentrations specified below were added to the wells, yielding a final total volume of 200 microliters.
# Activated Protein C (aPC) Assay
# aPC catalytic activity was determined using the chromogenic substrate, Pefachrome PC (delta-carbobenzloxy-D-lysine-L-prolyl-L-arginine-p-nitroaniline dihydrochloride), obtained from Pentapharm Ltd.). […] Purified human aPC was obtained from Hematologic Technologies, Inc. The enzyme was diluted into HBSA prior to assay in which the final concentration was 1.0 nM.
# [1] = system: pooled normal human plasma; experiment: Ex vivo anticoagulant effect: activated partial thromboplastin time (APTT) in plasma; assay type: biochemical
# Description: FIG. 6 depicts the anticoagulant effect of [3-[(benzylsulfonyl)amino]-2-oxo-1,2-dihydropyridyl] acetyl-L-arginal measured in citrated human plasma, closed circles (l), using the activated partial thromboplastin time (APTT) assay. […] The data is the mean of two independent determinations.
# The ex vivo anticoagulant effect of [3-[(benzylsulfonyl)amino]-2-oxo-1,2-dihydropyridyl]acetyl-L-argininal was determined by measuring the prolongation of the activated partial thromboplastin time (APTT) over a broad concentration range of the added inhibitor, using pooled normal human plasma. Fresh frozen citrated pooled normal human plasma was obtained from George King Biomedical, Overland Park, Kans. Measurements of APTT were made using the Coag-A-Mate RA4 automated coagulometer (General Diagnostics, Organon Technica, Oklahoma City, Okla.) using the Platelin® L reagent (Organon Technica, Durham, N.C.) as the initiator of clotting according to the manufacturer's instructions. The assay was conducted by making a series of dilutions of the test compounds in rapidly thawed plasma followed by adding 200 microliters to the wells of the assay carousel.
smiles,measurement,setting,value
"N=C(N)NCCC[C@@H](C=O)NC(=O)Cn1cccc(NS(=O)(=O)Cc2ccccc2)c1=O [Example 10, [3-[(benzylsulfonyl)amino]-2-oxo-1,2-dihydropyridyl]acetyl-L-argininal, trifluoroacetate salt]",pIC50,human alpha thrombin,9.18
same,pIC50,Human rt-PA (Activase),< 5.60
same,pIC50,human plasmin,< 5.60
same,pIC50,human aPC,< 5.60
same,concentration which caused a doubling of the control clotting time (APTT),"[1]; citrated human plasma, control clotting time 29 seconds, mean of two independent determinations",7.7 µM
same,prolongation of the APTT,"[1]; pooled normal human plasma, broad concentration range",prolonged the APTT in a dose dependent manner
